{"source": "patent US9050341B2", "about": "“Methods of treating drug resistant and other tumors by administering 6,7-dialkoxy quinazoline derivatives” (NATCO PHARMA LIMITED, priority 2009, dated 2015)", "experiment_in_all_cases": "KinomeScan kinase profiling", "assay_type_in_all_cases": "binding", "key": {"CDKL2": {"target": "T1, CDKL2 (Homo sapiens, UniProt Q92772)", "T1 construct": "host or cells: T7 phage in E. coli (BL21-derived)", "source_text": "(§1) The kinases were ABL1(F317L), ABL1(H396P), ABL1(Q252H), ABL1(Y253F), ADCK3, ADCK4, ALK, ARK5, AXL, BLK, BRSK2, CDK7, CIT, CLK4, CSNK1D, CSNK1E, DAPK1, DAPK3, DCAMKL3, DMPK, EGFR, EGFR(E746-A750DEL), EGFR(G719C), EGFR(G719S), EGFR(L747-E749DEL, A750P), EGFR(L747-S752 DEL, P753S), EGFR(L747-T751DEL, Sin), EGFR(L858R), EGFR(L861Q), EGFR(S752-I759DEL), EPHA5, EPHA6, ERBB2, ERBB4, ERK3, ERK4, FGR, FLT3(D835H), FLT3(D835Y), FLT3(ITD), FLT3(N841 I), FRK, GAK, GCN2(KIN.DOM.2, S808G), HCK, IRAK3, JAK1(KIN.DOM.1), KIT, KIT(D816V), KIT(V559D), KIT(V559D,T670I), LCK, LOK, LTK, LYN, MAP3K3, MAP4K4, MAP4K5, MET, MINK, MKNK1, MKNK2, MST4, MYLK2, PDGFRB, PIM3, PKN2, PRKD1, PRKD2, PRKD3, PRKG1, RIPK2, RPS6KA4(KIN.DOM.2), SIK2, SLK, SNARK, SRC, STK36, TNIK, TNNI3K, TYK2(KIN.DOM.2).\n(§2) Kinase assays: Assays were performed as described in Fabian et al. (2005) Nature Biotechnology, vol. 23, p. 329. Kinase-tagged T7 phage strains were grown in parallel in 24 or 96-well blocks in an E. coli host derived from the BL21 strain. E. coli were grown to log-phase and infected with T7 phage from a frozen stock (multiplicity of infection ˜0.1) and incubated with shaking at 32° C. until lysis (˜90 minutes). The lysates were centrifuged and filtered to remove cell debris. […] The liganded beads were blocked with excess biotin and washed with blocking buffer (SeaBlock (Pierce), 1% BSA, 0.05% Tween 20, 1 mM DTT) to remove unbound ligand and to reduce non-specific phage binding.\n(§3) Test compounds were prepared as 40× stocks in DMSO and diluted into the aqueous environment. 2.5% DMSO was added to control assays lacking a test compound. All reactions were performed in polystyrene 96-well plates that had been pretreated with blocking buffer in a final volume of 0.04 ml. […] The phage titer in the eluates was measured by quantitative PCR."}, "MST4": {"target": "T2, MST4 (Homo sapiens, UniProt Q9P289)", "T2 construct": "host or cells: T7 phage in E. coli host derived from BL21", "source_text": "as §1, §2, §3"}, "PRKD1": {"target": "T3, PRKD1 (Homo sapiens, UniProt Q15139)", "T3 construct": "purchased Ambit Biosciences Corp (KinomeScan); host or cells: E. coli host derived from BL21, infected with T7 phage", "source_text": "as §1, §2, §3"}, "BMX": {"target": "T4, BMX (Homo sapiens, UniProt P51813)", "T4 construct": "purchased Ambit Biosciences Corp (KinomeScan); host or cells: E. coli host derived from the BL21 strain, T7 phage", "source_text": "as §1, §2, §3"}, "PYK2": {"target": "T5, PYK2 (Homo sapiens, UniProt Q14289)", "T5 construct": "host or cells: E. coli host derived from BL21, T7 phage lysate", "source_text": "as §1, §2, §3"}, "PIK3CB": {"target": "T6, PIK3CB (Homo sapiens, UniProt P42338)", "T6 construct": "host or cells: E. coli host derived from the BL21 strain, infected with T7 phage", "source_text": "as §1, §2, §3"}, "MEK4": {"target": "T7, MEK4 (Homo sapiens, UniProt P45985)", "T7 construct": "host or cells: E. coli derived from BL21, infected with T7 phage", "source_text": "as §1, §2, §3"}, "GCN2 (Kin.Dom.2.S808G)": {"target": "T8, GCN2 (Kin.Dom.2.S808G) (Homo sapiens, UniProt Q9P2K8, S808G)", "T8 construct": "GCN2(KIN.DOM.2, S808G); host or cells: E. coli host derived from BL21, infected with T7 phage", "T8 sequence (Q9P2K8 590-1001 S808G limits assumed)": "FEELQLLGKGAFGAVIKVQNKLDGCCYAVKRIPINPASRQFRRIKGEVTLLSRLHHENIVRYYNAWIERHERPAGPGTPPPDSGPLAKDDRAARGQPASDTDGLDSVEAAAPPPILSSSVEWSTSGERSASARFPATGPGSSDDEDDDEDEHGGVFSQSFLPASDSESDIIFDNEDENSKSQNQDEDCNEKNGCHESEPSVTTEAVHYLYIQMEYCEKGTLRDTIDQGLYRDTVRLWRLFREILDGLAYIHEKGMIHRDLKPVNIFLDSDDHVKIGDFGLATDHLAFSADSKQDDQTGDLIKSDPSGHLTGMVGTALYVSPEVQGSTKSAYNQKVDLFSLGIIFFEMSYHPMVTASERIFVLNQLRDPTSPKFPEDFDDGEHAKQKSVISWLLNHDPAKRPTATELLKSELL", "source_text": "as §1, §2, §3"}, "BRAF": {"target": "T9, BRAF (Homo sapiens, UniProt P15056)", "T9 construct": "purchased Ambit Biosciences Corp (KinomeScan); host or cells: E. coli host derived from the BL21 strain, T7 phage", "source_text": "as §1, §2, §3"}, "PHKG2": {"target": "T10, PHKG2 (Homo sapiens, UniProt P15735)", "T10 construct": "host or cells: E. coli host derived from the BL21 strain, infected with T7 phage", "source_text": "as §1, §2, §3"}, "MAPKAPK5": {"target": "T11, MAPKAPK5 (Homo sapiens, UniProt Q8IW41)", "T11 construct": "host or cells: E. coli derived from BL21, infected with T7 phage", "source_text": "as §1, §2, §3"}, "MYLK": {"target": "T12, MYLK (Homo sapiens, UniProt Q15746)", "T12 construct": "host or cells: T7 phage in E. coli host derived from BL21", "source_text": "as §1, §2, §3"}, "SgK085": {"target": "T13, SgK085 (Homo sapiens, UniProt Q86YV6)", "T13 construct": "host or cells: E. coli host derived from the BL21 strain, T7 phage lysate", "source_text": "as §1, §2, §3"}, "NEK9": {"target": "T14, NEK9 (Homo sapiens, UniProt Q8TD19)", "T14 construct": "host or cells: T7 phage in E. coli host derived from BL21", "source_text": "as §1, §2, §3"}, "PDGFRA": {"target": "T15, PDGFRA (Homo sapiens, UniProt P16234)", "T15 construct": "host or cells: E. coli host derived from the BL21 strain, infected with T7 phage", "T15 sequence (P16234 24-1089)": "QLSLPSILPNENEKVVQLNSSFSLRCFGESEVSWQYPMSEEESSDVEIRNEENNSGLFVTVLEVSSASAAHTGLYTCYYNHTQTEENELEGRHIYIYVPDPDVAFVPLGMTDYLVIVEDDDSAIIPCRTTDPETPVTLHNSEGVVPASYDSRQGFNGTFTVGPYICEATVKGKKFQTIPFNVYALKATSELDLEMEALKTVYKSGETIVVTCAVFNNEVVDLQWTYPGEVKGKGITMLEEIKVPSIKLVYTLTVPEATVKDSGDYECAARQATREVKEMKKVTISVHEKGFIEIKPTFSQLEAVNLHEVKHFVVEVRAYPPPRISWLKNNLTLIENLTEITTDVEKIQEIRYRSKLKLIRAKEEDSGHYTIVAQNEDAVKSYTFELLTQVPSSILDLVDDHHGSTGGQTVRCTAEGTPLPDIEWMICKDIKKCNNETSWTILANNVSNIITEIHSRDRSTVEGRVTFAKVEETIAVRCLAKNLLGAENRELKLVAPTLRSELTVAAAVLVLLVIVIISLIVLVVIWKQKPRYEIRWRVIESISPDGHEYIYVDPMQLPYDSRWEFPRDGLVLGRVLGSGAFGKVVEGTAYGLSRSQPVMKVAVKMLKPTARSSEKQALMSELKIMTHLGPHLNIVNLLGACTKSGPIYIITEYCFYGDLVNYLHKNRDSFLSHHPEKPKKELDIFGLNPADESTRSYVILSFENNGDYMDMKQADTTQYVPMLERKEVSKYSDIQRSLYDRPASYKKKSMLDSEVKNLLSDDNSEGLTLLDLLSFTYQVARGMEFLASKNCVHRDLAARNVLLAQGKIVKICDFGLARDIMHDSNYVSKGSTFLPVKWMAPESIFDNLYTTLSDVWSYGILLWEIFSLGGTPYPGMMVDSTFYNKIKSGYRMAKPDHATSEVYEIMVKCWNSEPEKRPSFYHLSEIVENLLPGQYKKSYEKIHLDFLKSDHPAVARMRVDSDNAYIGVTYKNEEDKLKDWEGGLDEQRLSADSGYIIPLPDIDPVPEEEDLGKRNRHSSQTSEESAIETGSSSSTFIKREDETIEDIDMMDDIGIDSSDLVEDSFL", "source_text": "as §1, §2, §3"}, "MYLK2": {"target": "T16, MYLK2 (Homo sapiens, UniProt Q9H1R3)", "T16 construct": "host or cells: T7 phage in E. coli host derived from BL21", "source_text": "as §1, §2, §3"}, "CSNK1A1L": {"target": "T17, CSNK1A1L (Homo sapiens, UniProt Q8N752)", "T17 construct": "host or cells: T7 phage in E. coli (BL21-derived)", "source_text": "as §1, §2, §3"}, "ABL1 (Y253F)": {"target": "T18, ABL1 (Y253F) (Homo sapiens, UniProt P00519, Y253F)", "T18 construct": "host or cells: E. coli host derived from BL21 (T7 phage lysate)", "source_text": "as §1, §2, §3"}, "PCTK1": {"target": "T19, PCTK1 (Homo sapiens, UniProt Q00536)", "T19 construct": "host or cells: E. coli host derived from the BL21 strain, infected with T7 phage", "source_text": "as §1, §2, §3"}, "CAMK1D": {"target": "T20, CAMK1D (Homo sapiens, UniProt Q8IU85)", "T20 construct": "purchased Ambit Biosciences Corp (KinomeScan); host or cells: E. coli host derived from the BL21 strain, T7 phage", "source_text": "as §1, §2, §3"}, "AXL": {"target": "T21, AXL (Homo sapiens, UniProt P30530)", "T21 construct": "purchased Ambit Biosciences Corp (KinomeScan); host or cells: E. coli host derived from the BL21 strain, T7 phage", "T21 sequence (P30530 26-894)": "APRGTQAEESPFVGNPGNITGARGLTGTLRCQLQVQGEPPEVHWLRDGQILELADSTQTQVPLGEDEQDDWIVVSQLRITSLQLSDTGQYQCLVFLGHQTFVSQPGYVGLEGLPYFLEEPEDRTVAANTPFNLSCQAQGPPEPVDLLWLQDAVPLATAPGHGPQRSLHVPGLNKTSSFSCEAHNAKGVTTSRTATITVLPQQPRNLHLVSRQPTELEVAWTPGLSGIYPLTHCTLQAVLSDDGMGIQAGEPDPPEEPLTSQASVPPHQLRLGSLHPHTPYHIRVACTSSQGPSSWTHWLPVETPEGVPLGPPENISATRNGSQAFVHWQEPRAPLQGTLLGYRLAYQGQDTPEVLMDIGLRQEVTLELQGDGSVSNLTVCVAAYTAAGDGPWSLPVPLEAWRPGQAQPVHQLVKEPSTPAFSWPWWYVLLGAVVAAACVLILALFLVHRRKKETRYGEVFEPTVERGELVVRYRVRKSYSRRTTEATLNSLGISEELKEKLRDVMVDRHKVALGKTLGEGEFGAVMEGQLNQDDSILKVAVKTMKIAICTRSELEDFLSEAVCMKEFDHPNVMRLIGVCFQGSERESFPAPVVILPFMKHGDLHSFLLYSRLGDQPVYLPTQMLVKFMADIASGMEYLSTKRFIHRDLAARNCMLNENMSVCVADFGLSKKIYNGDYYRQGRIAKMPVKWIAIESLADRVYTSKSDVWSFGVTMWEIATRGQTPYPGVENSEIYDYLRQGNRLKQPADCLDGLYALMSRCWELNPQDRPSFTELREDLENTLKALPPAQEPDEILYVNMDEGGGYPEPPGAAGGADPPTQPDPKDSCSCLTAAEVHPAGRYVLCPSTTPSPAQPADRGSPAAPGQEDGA", "source_text": "as §1, §2, §3"}, "TEC": {"target": "T22, TEC (Homo sapiens, UniProt P42680)", "T22 construct": "host or cells: E. coli host derived from the BL21 strain, T7 phage lysate", "source_text": "as §1, §2, §3"}, "PLK4": {"target": "T23, PLK4 (Homo sapiens, UniProt O00444)", "T23 construct": "purchased Ambit Biosciences Corp (KinomeScan); host or cells: E. coli host derived from BL21, infected with T7 phage", "source_text": "as §1, §2, §3"}}, "data": [{"smiles": "C#Cc1cccc(Nc2ncnc3cc(OC)c(OCCCN4CCOCC4)cc23)c1", "note": "[NRC-2694, N-(3-ethylnylphenyl)-7-methoxy-6-[3-(4-morpholinyl)propoxy]-4-quinazolinamine]", "values": [{"measurement": "% Ctrl @ 10000 nM", "setting": "CDKL2", "result": 67, "unit": "% Ctrl"}, {"measurement": "% Ctrl @ 10000 nM", "setting": "MST4", "result": 29, "unit": "% Ctrl"}, {"measurement": "% Ctrl @ 10000 nM", "setting": "PRKD1", "result": 9.6, "unit": "% Ctrl"}, {"measurement": "% Ctrl @ 10000 nM", "setting": "BMX", "result": 73, "unit": "% Ctrl"}, {"measurement": "% Ctrl @ 10000 nM", "setting": "PYK2", "result": 71, "unit": "% Ctrl"}, {"measurement": "% Ctrl @ 10000 nM", "setting": "PIK3CB", "result": 100, "unit": "% Ctrl"}, {"measurement": "% Ctrl @ 10000 nM", "setting": "MEK4", "result": 92, "unit": "% Ctrl"}, {"measurement": "% Ctrl @ 10000 nM", "setting": "GCN2 (Kin.Dom.2.S808G)", "result": 12, "unit": "% Ctrl"}, {"measurement": "% Ctrl @ 10000 nM", "setting": "BRAF", "result": 81, "unit": "% Ctrl"}, {"measurement": "% Ctrl @ 10000 nM", "setting": "PHKG2", "result": 59, "unit": "% Ctrl"}, {"measurement": "% Ctrl @ 10000 nM", "setting": "MAPKAPK5", "result": 79, "unit": "% Ctrl"}, {"measurement": "% Ctrl @ 10000 nM", "setting": "MYLK", "result": 62, "unit": "% Ctrl"}, {"measurement": "% Ctrl @ 10000 nM", "setting": "SgK085", "result": 84, "unit": "% Ctrl"}, {"measurement": "% Ctrl @ 10000 nM", "setting": "NEK9", "result": 85, "unit": "% Ctrl"}, {"measurement": "% Ctrl @ 10000 nM", "setting": "PDGFRA", "result": 50, "unit": "% Ctrl"}, {"measurement": "% Ctrl @ 10000 nM", "setting": "MYLK2", "result": 4.8, "unit": "% Ctrl"}, {"measurement": "% Ctrl @ 10000 nM", "setting": "CSNK1A1L", "result": 44, "unit": "% Ctrl"}, {"measurement": "% Ctrl @ 10000 nM", "setting": "ABL1 (Y253F)", "result": 23, "unit": "% Ctrl"}, {"measurement": "% Ctrl @ 10000 nM", "setting": "PCTK1", "result": 100, "unit": "% Ctrl"}, {"measurement": "% Ctrl @ 10000 nM", "setting": "CAMK1D", "result": 83, "unit": "% Ctrl"}, {"measurement": "% Ctrl @ 10000 nM", "setting": "AXL", "result": 25, "unit": "% Ctrl"}, {"measurement": "% Ctrl @ 10000 nM", "setting": "TEC", "result": 90, "unit": "% Ctrl"}, {"measurement": "% Ctrl @ 10000 nM", "setting": "PLK4", "result": 70, "unit": "% Ctrl"}]}]}
